Measured values from US20230382915A1, “GCN2 AND PERK KINASE INHIBITORS AND METHODS OF USE THEREOF” (Deciphera Pharmaceuticals, LLC, priority 2021, published 2023).

How the values were obtained:
[1] = biological target: PERK enzyme (Homo sapiens (Human), UniProt Q9NZJ5); test: Biochemical assay for PERK (coupled pyruvate kinase/lactate dehydrogenase); conditions: 1 mM ATP
Experimental: Activity of PERK kinase was determined spectroscopically using a coupled pyruvate kinase/lactate dehydrogenase assay that continuously monitors the ATP hydrolysis-dependent oxidation of NADH (e.g., Schindler et al. Science (2000) 289: 1938-1942). Assays were conducted in 384-well plates ([…] final volume) using 10 nM PERK (from Beryllium), 0.25 mg/mL Myelin Basic Protein substrate, 1.5 units pyruvate kinase, 2.1 units lactate dehydrogenase, 1 mM phosphoenol pyruvate, 0.28 mM NADH and 1 mM ATP in assay buffer (100 mM Tris, pH 7.5, 15 mM MgCl2, 0.5 mM DTT, 0.004% (w/v) BSA, and 0.004% Triton X-100). Inhibition of PERK was measured by adding serial diluted test compound (final assay concentration of 1% DMSO). A decrease in absorption at 340 nm was monitored continuously for 6 hours at 30° C. on a multi-mode microplate reader (BioTek). The reaction rate was calculated using the 2-3 h time frame. The reaction rate at each concentration of compound was converted to percent inhibition using controls (i.e., reaction with no test compound and reaction with a known inhibitor) and IC50 values were calculated using software routines in Prism (GraphPad software).

[2] = system: CCRF-CEM leukemia cells; test: CCRF-CEM ASNase cell proliferation assay; assay type: cell-based; conditions: Homo sapiens, 1 mU/mL ASNase, 72 h
Experimental: CCRF-CEM leukemia cells (catalog #CCL-116) were obtained from the American Type Culture Collect (ATTC, Manassas, VA). Cells were grown in RPMI-1640 medium supplemented with 10% heat-inactivated fetal bovine serum (Invitrogen, Carlsbad, CA) and 1% Penicillin/Streptomycin/L-Glutamine at 37° C., 5% CO2, and 95% humidity. Cells were expanded until reaching one million cells per mL at which time they are subcultured or harvested for assay use. Ten thousand cells per well in 200 μL RPMI-1640 supplemented with 10% heat-inactivated fetal bovine serum and 1% Penicillin/Streptomycin were dispensed into a 96-well black clear bottom plate. A serial dilution of test compound and 1 mU/mL ASNase was added in triplicate and plates were incubated for 72 h at 37° C., 5% CO2, and 95% humidity. At the end of the incubation, 40 μL of a […] solution of resazurin (Sigma, St. Louis, MO) in PBS was added to each well of the plate and plates were incubated for an additional 6 h at 37° C., 5% CO2, and 95% humidity. Plates were read on a Synergy2 or equivalent reader (Biotek, Winooski VT) using an excitation of 540 nm and an emission of 600 nm. Data was analyzed using GraphPad Prism software (GraphPad, San Diego, CA) to calculate IC50 values.

[3] = system: ATF4 in thapsigargin stimulated CCRF-CEM cells (PERK); test: CCRF-CEM thapsigargin (TG) ATF4 ELISA; assay type: cell-based; conditions: Homo sapiens, 1 μM thapsigargin
Experimental: CCRF-CEM leukemia cells (catalog #CCL-116) were obtained from the American Type Culture Collection (ATTC, Manassas, VA). Briefly, cells were grown in RPMI-1640 medium supplemented with 10% heat-inactivated fetal bovine serum (Invitrogen, Carlsbad, CA) and 1% Penicillin/Streptomycin/L-Glutamine at 37° C., 5% CO2, and 95% humidity. Cells were expanded until reaching one million cells per mL at which time they were subcultured or harvested for assay use. One million five hundred thousand cells per well in 1 mL complete growth medium were dispensed into 12-well plates and incubated overnight. A serial dilution of test compound was added and cells were incubated at 37° C., 5% CO2, and 95% for three hours, then 1 μM thapsigargin was added and cells were incubated for an additional hour at 37° C., 5% CO2, and 95%. Cells were lysed then ATF4 levels were measured using an ELISA assay (Proteintech, Rosemont, IL). Absorbance was measured at 450 nm and 544 nM using a Synergy2 or equivalent reader (Biotek, Winooski VT). Data was analyzed using PRISM software (Graphpad, San Diego, CA) to calculate IC50 values.

[4] = biological target: GCN2 kinase (Homo sapiens (Human), UniProt Q9P2K8); test: Biochemical assay for GCN2 (TR-FRET kinase activity); conditions: 1 mM ATP
GCN2 kinase, sequence (Q9P2K8 whole entry): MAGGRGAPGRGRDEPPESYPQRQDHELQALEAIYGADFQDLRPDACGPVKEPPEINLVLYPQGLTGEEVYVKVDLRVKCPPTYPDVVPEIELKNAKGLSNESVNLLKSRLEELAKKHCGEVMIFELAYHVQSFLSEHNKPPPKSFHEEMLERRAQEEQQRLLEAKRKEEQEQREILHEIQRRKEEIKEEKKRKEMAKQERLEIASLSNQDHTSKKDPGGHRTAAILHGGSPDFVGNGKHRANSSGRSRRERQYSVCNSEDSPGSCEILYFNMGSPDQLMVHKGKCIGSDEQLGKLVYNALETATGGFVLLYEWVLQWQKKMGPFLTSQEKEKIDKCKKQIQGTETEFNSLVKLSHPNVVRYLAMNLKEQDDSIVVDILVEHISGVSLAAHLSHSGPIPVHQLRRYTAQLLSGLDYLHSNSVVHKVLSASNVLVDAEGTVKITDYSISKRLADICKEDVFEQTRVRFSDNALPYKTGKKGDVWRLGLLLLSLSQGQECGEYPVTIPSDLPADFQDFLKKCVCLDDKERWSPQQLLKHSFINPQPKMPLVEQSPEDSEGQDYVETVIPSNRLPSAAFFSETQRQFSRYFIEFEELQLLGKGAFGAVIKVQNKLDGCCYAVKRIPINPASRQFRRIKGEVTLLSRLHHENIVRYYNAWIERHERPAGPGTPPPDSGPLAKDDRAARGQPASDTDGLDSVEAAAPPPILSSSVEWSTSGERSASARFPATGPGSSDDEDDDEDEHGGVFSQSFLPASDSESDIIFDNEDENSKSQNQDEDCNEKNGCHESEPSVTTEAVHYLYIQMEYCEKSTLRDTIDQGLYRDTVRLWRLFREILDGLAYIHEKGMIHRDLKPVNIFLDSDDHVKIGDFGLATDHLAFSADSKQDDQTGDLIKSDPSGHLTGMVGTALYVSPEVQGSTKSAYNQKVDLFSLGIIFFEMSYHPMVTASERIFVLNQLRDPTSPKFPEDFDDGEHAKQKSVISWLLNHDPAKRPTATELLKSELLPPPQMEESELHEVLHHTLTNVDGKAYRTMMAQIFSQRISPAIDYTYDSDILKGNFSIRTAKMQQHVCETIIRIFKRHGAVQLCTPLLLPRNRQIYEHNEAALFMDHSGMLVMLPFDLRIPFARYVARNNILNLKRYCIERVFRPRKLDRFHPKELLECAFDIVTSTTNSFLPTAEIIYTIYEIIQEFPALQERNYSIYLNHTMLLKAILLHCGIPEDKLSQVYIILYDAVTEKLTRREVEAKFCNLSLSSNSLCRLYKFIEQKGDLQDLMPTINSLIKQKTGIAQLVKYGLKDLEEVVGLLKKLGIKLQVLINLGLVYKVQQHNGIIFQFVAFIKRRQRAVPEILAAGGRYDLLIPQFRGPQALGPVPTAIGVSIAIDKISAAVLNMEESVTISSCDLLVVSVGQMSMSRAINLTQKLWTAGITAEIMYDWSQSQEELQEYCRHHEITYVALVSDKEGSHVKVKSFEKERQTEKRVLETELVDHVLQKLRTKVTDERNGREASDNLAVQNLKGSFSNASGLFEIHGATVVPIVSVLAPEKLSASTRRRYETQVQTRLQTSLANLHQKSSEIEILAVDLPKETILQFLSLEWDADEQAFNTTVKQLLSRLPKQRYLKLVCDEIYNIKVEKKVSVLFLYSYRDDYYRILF
Experimental: Activity of GCN2 kinase was determined using a TR-FRET kinase activity assay (e.g. Riddle et al. Analytical Biochemistry (2006) 356(1) 108-116). Assays were conducted in 384-well plates (13 μL assay volume) using 2 nM GCN2 (Carna Biosciences), 130 nM GFP-EIf2α (Invitrogen), 0.2 mg/mL E. coli tRNA (sigma) and 1 mM ATP in kinase buffer (Invitrogen). Inhibition of GCN2 was measured by adding serial diluted test compound (final assay concentration of 0.5% DMSO) followed by a 3-hour incubation. Tb-peIF2α (pSer52) antibody (Invitrogen) (2 nM final assay concentration) in kinase buffer containing EDTA (final assay concentration of 20 mM) was added. After a 60 min incubation at room temperature, TR-FRET was monitored using an excitation wavelength of 340 nm and emission wavelengths of 490 nm and 520 nm. The emission ratio (520/490) at each compound concentration of was converted to percent inhibition using controls (i.e., reaction with no test compound and reaction with a known inhibitor) and IC50 values were calculated by fitting a four-parameter sigmoidal curve to the data using Prism (GraphPad software).

[5] = system: ATF4 in H929 multiple myeloma cells; test: H929 ATF4 ELISA assay; assay type: cell-based; conditions: four hours, relative to vehicle treated control
Experimental: H929 multiple myeloma cells (catalog #CRL-9068) were obtained from the American Type Culture Collection (ATTC, Manassas, VA). Briefly, cells were grown in RPMI-1640 medium supplemented with 20% heat-inactivated fetal bovine serum (catalog #A3840002, ThermoFisher Scientific, Waltham, MA), 1% Penicillin/Streptomycin/L-Glutamine (catalog #10378016, ThermoFisher Scientific, Waltham, MA), and 0.05 mM 2-mercaptoethanol (catalog #21985-023, ThermoFisher Scientific, Waltham, MA) at 37° C., 5% CO2, and 95% humidity. Cells were expanded until reaching one million five hundred thousand cells per mL at which time they were sub-cultured or harvested for assay use. One million five hundred thousand cells per well in 1 mL complete growth medium were dispensed into 12-well plates and incubated overnight. A serial dilution of test compound was added, and cells were incubated at 37° C., 5% CO2, and 95% for four hours. Cells were lysed then ATF4 levels were measured using an ELISA assay (Proteintech, Rosemont, IL). Absorbance is measured at 450 nm and 544 nM using a Synergy2 or equivalent reader (Biotek, Winooski VT). Data were analyzed using PRISM software (Graphpad, San Diego, CA) to calculate fold stimulation of cellular ATF4 relative to vehicle treated control.

PERK enzyme, sequence (Q9NZJ5 other isoform, or with tags, fused parts or gaps): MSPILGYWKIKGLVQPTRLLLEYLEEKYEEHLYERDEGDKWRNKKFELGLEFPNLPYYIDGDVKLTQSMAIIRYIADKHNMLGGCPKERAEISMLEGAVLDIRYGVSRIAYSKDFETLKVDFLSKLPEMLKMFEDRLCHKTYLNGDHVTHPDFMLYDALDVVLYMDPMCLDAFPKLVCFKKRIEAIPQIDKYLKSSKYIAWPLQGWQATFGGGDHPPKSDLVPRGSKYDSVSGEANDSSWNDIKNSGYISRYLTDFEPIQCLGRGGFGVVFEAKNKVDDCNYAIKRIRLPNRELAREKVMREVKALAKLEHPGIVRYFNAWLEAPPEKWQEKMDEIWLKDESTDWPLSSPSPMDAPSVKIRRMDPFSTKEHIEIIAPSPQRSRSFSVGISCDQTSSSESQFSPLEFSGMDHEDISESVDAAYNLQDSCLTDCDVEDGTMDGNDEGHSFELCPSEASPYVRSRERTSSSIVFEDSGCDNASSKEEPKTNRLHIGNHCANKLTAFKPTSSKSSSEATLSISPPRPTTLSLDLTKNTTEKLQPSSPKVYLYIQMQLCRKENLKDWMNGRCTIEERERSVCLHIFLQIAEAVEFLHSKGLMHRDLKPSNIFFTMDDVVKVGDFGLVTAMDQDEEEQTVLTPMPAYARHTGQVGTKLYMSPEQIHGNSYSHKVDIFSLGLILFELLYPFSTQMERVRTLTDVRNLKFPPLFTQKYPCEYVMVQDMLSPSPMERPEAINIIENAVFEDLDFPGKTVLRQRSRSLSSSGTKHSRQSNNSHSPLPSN

SMILES | IC50 [1] [nM] | IC50 [2] [nM] | IC50 [3] [nM] | IC50 [4] [nM] | H929 NS ATF4 ELISA (ATF4 stim) [5]
CC(=O)OCc1cc(Cl)cc(S(=O)(=O)Nc2cccc(-c3cn(C)c4ncnc(N)c34)c2F)c1Cl [Example 1, 3-(N-(3-(4-amino-7-methyl-7H-pyrrolo[2,3-d]pyrimidin-5-yl)-2-fluorophenyl)sulfamoyl)-2,5-dichlorobenzyl acetate] | ≤ 100 | 100 to 500 | 100 to 500 | 1000 to 10000 | 
COCCn1cc(-c2cccc(NS(=O)(=O)c3cc(Cl)cc(CO)c3Cl)c2F)c2c(N)ncnc21 [Example 4] | ≤ 100 | ≤ 100 | ≤ 100 | ≤ 100 | +++ (an ATF4 stim greater than 10 fold and less than or equal to 20 fold)
Cn1cc(-c2cccc(NS(=O)(=O)c3cccc(CO)c3Cl)c2F)c2c(N)ncnc21 [Example 5] | ≤ 100 | 1000 to 10000 | 100 to 500 | 1000 to 10000 | ++ (an ATF4 stim greater than 5-fold and less than or equal to 10 fold)
Cn1cc(-c2cc(F)cc(NS(=O)(=O)c3cc(Cl)cc(CO)c3Cl)c2)c2c(N)ncnc21 [Example 6] | ≤ 100 | 500 to 1000 | 100 to 500 | 100 to 500 | 
Cn1cc(-c2cc(NS(=O)(=O)c3cc(Cl)cc(CO)c3Cl)cc(F)c2F)c2c(N)ncnc21 [Example 7] | ≤ 100 | 500 to 1000 | 100 to 500 | 100 to 500 | 
Nc1ncnc2c1c(-c1cccc(NS(=O)(=O)c3cc(Cl)cc(CO)c3Cl)c1F)cn2C1CC1 [Example 8] | ≤ 100 | ≤ 100 | ≤ 100 | ≤ 100 | +++ (an ATF4 stim greater than 10 fold and less than or equal to 20 fold)
CC(=O)OCc1cc(Cl)cc(S(=O)(=O)Nc2cccc(-c3cn(C4COC4)c4ncnc(N)c34)c2F)c1Cl [Example 9] | ≤ 100 | 100 to 500 | ≤ 100 | 1000 to 10000 | 
Nc1ncnc2c1c(-c1cccc(NS(=O)(=O)c3cc(Cl)cc(CO)c3Cl)c1F)cn2C1COC1 [Example 10] | ≤ 100 | ≤ 100 | ≤ 100 | ≤ 100 | +++ (an ATF4 stim greater than 10 fold and less than or equal to 20 fold)
Nc1nccc2scc(-c3cccc(NS(=O)(=O)c4cc(Cl)cc(CO)c4Cl)c3F)c12 [Example 11] |  | 500 to 1000 | 1000 to 10000 | 100 to 500 | 
Nc1nccc2occ(-c3cccc(NS(=O)(=O)c4cc(Cl)cc(CO)c4Cl)c3F)c12 [Example 12] |  | 1000 to 10000 | 1000 to 10000 | 100 to 500 | 
CC(C)(C)n1cc(-c2cccc(NS(=O)(=O)c3cc(Cl)cc(CO)c3Cl)c2F)c2c(N)ncnc21 [Example 13] | ≤ 100 | 100 to 500 | 100 to 500 | 100 to 500 | 
Nc1ncnc2c1c(-c1cccc(NS(=O)(=O)c3cc(Cl)cc(CO)c3Cl)c1F)cn2C1CCNCC1 [Example 15] | ≤ 100 | 100 to 500 | 500 to 1000 | ≤ 100 | 
Nc1ncnc2c1c(-c1cccc(NS(=O)(=O)c3cc(Cl)cc(CO)c3Cl)c1F)cn2C1CNC1 [Example 16] | ≤ 100 | 500 to 1000 | 100 to 500 | ≤ 100 | 
CN1CCC(n2cc(-c3cccc(NS(=O)(=O)c4cc(Cl)cc(CO)c4Cl)c3F)c3c(N)ncnc32)CC1 [Example 17] |  | ≤ 100 | ≤ 100 |  | +++ (an ATF4 stim greater than 10 fold and less than or equal to 20 fold)
Cn1cc(-c2cccc(NS(=O)(=O)c3cc(Cl)cc(CO)c3Cl)c2F)c2c(N)nccc21 [Example 18] | ≤ 100 | 1000 to 10000 | 1000 to 10000 | 1000 to 10000 | 
Cn1cc(-c2cccc(NS(=O)(=O)c3cc(F)cc(CO)c3Cl)c2F)c2c(N)ncnc21 [Example 19] | ≤ 100 | 100 to 500 | ≤ 100 | 100 to 500 | 
Cn1cc(-c2cccc(NS(=O)(=O)c3cc(Cl)cc(CO)c3Cl)c2Cl)c2c(N)ncnc21 [Example 20] | ≤ 100 | 100 to 500 | 100 to 500 | 100 to 500 | 
Cn1cc(-c2cccc(NS(=O)(=O)c3cc(Cl)cc(CO)c3F)c2F)c2c(N)ncnc21 [Example 22] | ≤ 100 | 1000 to 10000 | 100 to 500 | 100 to 500 | 
[2H]C([2H])([2H])n1cc(-c2cccc(NS(=O)(=O)c3cc(Cl)cc(CO)c3Cl)c2F)c2c(N)ncnc21 [Example 27] | ≤ 100 | ≤ 100 | ≤ 100 | ≤ 100 | 
COCc1cc(Cl)cc(S(=O)(=O)Nc2cccc(-c3cn(C)c4ncnc(N)c34)c2F)c1Cl [Example 29] | ≤ 100 | 1000 to 10000 | 100 to 500 | 100 to 500 | 
CCC(C)(C)C(=O)OCc1cc(Cl)cc(S(=O)(=O)Nc2cccc(-c3cn(C)c4ncnc(N)c34)c2F)c1Cl [Example 30] | 1000 to 10000 | 1000 to 10000 | 500 to 1000 | 1000 to 10000 | 
Cn1cc(-n2cc(-c3cccc(NS(=O)(=O)c4cc(Cl)cc(CO)c4Cl)c3F)c3c(N)ncnc32)cn1 [Example 31] | ≤ 100 | ≤ 100 | ≤ 100 | ≤ 100 | 
Nc1ncnc2c1c(-c1cccc(NS(=O)(=O)c3cc(Cl)cc(CO)c3Cl)c1F)cn2-c1cn[nH]c1 [Example 32] | ≤ 100 | ≤ 100 | 100 to 500 | ≤ 100 | 
Cn1cc(-c2cccc(NS(=O)(=O)c3cc(Cl)cc(CO)c3Br)c2F)c2c(N)ncnc21 [Example 33] | ≤ 100 | ≤ 100 | ≤ 100 | ≤ 100 | 
